Here are results for 5 compounds from ChEMBL document CHEMBL1201862, “PubChem BioAssay data set” (2004).

Experiment [1] addresses Cyclin-dependent kinase 19 (Homo sapiens, UniProt Q9BWU1). The experiment can be described thus: Navigating the Kinome. Panel member name: CDC2L6. The format is functional.
In experiment [2] the target is Aurora kinase B (Homo sapiens, UniProt Q96GD4). The format is functional.
Experiment [3] deals with Aurora kinase A (Homo sapiens, UniProt O14965). The format is functional.
In experiment [4] the target is Dual specificity tyrosine-phosphorylation-regulated kinase 1B (Homo sapiens, UniProt Q9Y463). In words: Navigating the Kinome. Panel member name: DYRK1B. The format is functional.
The target of experiment [5] is Dual specificity tyrosine-phosphorylation-regulated kinase 1A (Homo sapiens, UniProt Q13627). The format is functional.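 Further: measured against DYRK1A as one member of a broad kinome profiling panel.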
Experiment [6] has as its target Dual specificity protein kinase CLK4 (Homo sapiens, UniProt Q9HAZ1). The format is functional.
Experiment [7] has as its target Mitogen-activated protein kinase 8 (Homo sapiens, UniProt P45983). The format is functional.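 Further: value comes from one member of a kinome-wide kinase profiling panel.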
The target in experiment [8] is Serine/threonine-protein kinase PAK 1 (Homo sapiens, UniProt Q13153). The format is functional.
Experiment [9] has as its target SRSF protein kinase 1 (Homo sapiens, UniProt Q96SB4). The format is functional.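 Further: measured as one member of a kinome-wide kinase profiling panel.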
In experiment [10] the target is Interleukin-1 receptor-associated kinase 4 (Homo sapiens, UniProt Q9NWZ3). The format is functional.
Experiment [11] is described as follows: HepG2 cell cytotoxicity, dose response, cytotoxicity control for Shn3 inhibitor project, CellTiter-Glo, cherry-picked (AID 624134). The format is functional, cell-based.
Experiment [12] is described as follows: MC4R antagonists, dose response, counter-screen for LGR2 antagonist project, cell-based, plate reader, cherry pick (AID 743444).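 Further: transfected HEK 293 cells stimulated with alpha-MSH peptide; potency of inhibitors of the alpha-MSH evoked signal.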 The format is functional. For orientation: The purpose of a counterscreen is to sort out artefacts and off-target activity.
Experiment [13] in a line: control 3'UTR Renilla luciferase suppression, dose response, counter-screen for Shn3 inhibitor project, cell-based, Clone20-Shn3RL, cherry-picked (AID 624133). The format is functional.
Experiment [14] in a line: cytotoxicity in HEK-293T cells, dose response, cytotoxicity control for BCR NF-kB inhibitor project, luminescence, B-cell screen hits (AID 489021).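 Further: HEK-293T cells carrying an NF-kB luciferase reporter; cells exposed to compound for about 14 hours before viability readout.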 The format is functional, cell-based.
A short description of experiment [15]: nonselective inhibitors of cellular cAMP signaling, dose response, counter-screen for MC4R biased antagonist project, cell-based, TR-FRET cAMP detection (AID 602305).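 Further: U2OS cells stimulated with forskolin near its EC80 as the cAMP inducer; potency is for inhibition of forskolin-stimulated cAMP signaling.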 The format is functional.
Experiment [16] is described as follows: A549 cell cytotoxicity, dose response, cytotoxicity control, plate reader, cherry-pick, antagonist series (AID 743412). The format is functional, cell-based.
The target of experiment [17] is Melanocortin receptor 4 (Homo sapiens, UniProt P32245). In words: MC4R antagonist potency on cAMP, dose response, cell-based, TR-FRET, biased antagonists (AID 602298).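 Further: antagonist potency against agonist-stimulated cAMP production.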 The format is functional. (In general: In TR-FRET formats the signal depends on donor and acceptor labels being close together.)
A short description of experiment [18]: HepG2 cell cytotoxicity, dose response, cytotoxicity control, plate reader, cherry-pick, antagonist series (AID 743416). The format is functional, cell-based.
Experiment [19] in a line: growth suppression of PTEN-null colon cells, dose response, cell-based, HCT116 PTEN knockout (AID 1047).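 Further: HCT116 colon tumor cells with PTEN knocked out; cells exposed to compound for 60 hours before readout; potency for loss of cell viability measured by luminescence.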 The format is functional.
Experiment [20] can be described thus: Shn3 3'UTR reporter inhibitors, dose response, cell-based, Clone20 osteoblasts, firefly luciferase, cherry-picked (AID 624132).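 Further: firefly luciferase luminescence from reporter carrying the Shn3 3'UTR in osteoblasts.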 The format is functional.
Experiment [21] can be described thus: growth suppression of beta-catenin-knockout colon cells, dose response, cell-based, HCT116, human colon tumor (AID 1045).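 Further: HCT116 colon tumor cells with beta catenin knocked out; cells exposed to compound for 60 hours.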 The format is functional.
Experiment [22] is described as follows: HEK293 cell cytotoxicity, dose response, cytotoxicity control, plate reader, cherry-picked samples (AID 743446). The format is functional, cell-based.
A short description of experiment [23]: LGR2 antagonists, dose response, cell-based, HEK293, CRE-luciferase reporter, cherry pick, set 2 (AID 743343).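 Further: transfected cells were stimulated with diluted bursicon conditioned medium after compound addition.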 The format is functional. In general terms: A reporter such as luciferase makes a cellular process visible.
A short description of experiment [24]: microbe, parasite or virus in culture. The format is functional. The settings on record: Mycobacterium tuberculosis.
Experiment [25] has as its target T1, DNA dC->dU-editing enzyme APOBEC-3G (Homo sapiens, UniProt Q9HC16). The format is functional.
Experiment [26] addresses T2, DNA dC->dU-editing enzyme APOBEC-3A (Homo sapiens, UniProt P31941). The experiment can be described thus: SAR analysis of small molecule inhibitors of APOBEC3A DNA Deaminase via a fluorescence-based single-stranded DNA deaminase assay - Set 2. The format is functional. The conditions noted are these: read-out: IC50_Mean.
The target in experiment [27] is T2, DNA dC->dU-editing enzyme APOBEC-3A. In words: Dose Response confirmation of small molecule APOBEC3A DNA Deaminase Inhibitors via a fluorescence-based single-stranded DNA deaminase assay. [Related pubchem assays (depositor defined):AID493011, AID493024]. The format is functional.
Experiment [28] has as its target T1, DNA dC->dU-editing enzyme APOBEC-3G. In words: APOBEC3G deaminase inhibitors, SAR follow-up, biochemical, fluorescence, single-stranded DNA substrate (AID 602136). The settings on record: read-out: IC50_Mean. The format is functional.
Experiment [29] shares this target. In words: SAR analysis of small molecule inhibitors of APOBEC3G DNA Deaminase via a fluorescence-based single-stranded DNA deaminase assay - Set 2. The format is functional. The settings on record: read-out: IC50_Mean.
Experiment [30] has as its target T2, DNA dC->dU-editing enzyme APOBEC-3A. In words: SAR analysis of small molecule inhibitors of APOBEC3A DNA Deaminase via a fluorescence-based single-stranded DNA deaminase assay. The format is functional. The conditions noted are these: read-out: IC50_Mean.

Calls of active or inactive are those of the source.

T2 sequence (P31941 whole entry): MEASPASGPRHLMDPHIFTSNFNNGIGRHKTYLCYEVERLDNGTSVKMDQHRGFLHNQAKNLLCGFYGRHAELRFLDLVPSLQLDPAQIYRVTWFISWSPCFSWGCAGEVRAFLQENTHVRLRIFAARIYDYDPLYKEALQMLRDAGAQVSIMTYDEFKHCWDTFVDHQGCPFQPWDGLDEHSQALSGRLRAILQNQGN
T1 sequence (Q9HC16 whole entry): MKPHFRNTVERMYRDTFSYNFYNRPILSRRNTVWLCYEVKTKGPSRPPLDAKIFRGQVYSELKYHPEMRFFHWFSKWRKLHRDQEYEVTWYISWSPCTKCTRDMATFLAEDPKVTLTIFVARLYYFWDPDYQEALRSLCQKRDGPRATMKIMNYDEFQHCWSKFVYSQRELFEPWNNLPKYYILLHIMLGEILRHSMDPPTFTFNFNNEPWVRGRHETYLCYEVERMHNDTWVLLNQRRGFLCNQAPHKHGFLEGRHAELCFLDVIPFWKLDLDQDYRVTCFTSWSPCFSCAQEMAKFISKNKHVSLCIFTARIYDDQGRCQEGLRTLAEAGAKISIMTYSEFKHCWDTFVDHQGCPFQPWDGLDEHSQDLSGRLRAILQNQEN
Interleukin-1 receptor-associated kinase 4, sequence (Q9NWZ3 whole entry): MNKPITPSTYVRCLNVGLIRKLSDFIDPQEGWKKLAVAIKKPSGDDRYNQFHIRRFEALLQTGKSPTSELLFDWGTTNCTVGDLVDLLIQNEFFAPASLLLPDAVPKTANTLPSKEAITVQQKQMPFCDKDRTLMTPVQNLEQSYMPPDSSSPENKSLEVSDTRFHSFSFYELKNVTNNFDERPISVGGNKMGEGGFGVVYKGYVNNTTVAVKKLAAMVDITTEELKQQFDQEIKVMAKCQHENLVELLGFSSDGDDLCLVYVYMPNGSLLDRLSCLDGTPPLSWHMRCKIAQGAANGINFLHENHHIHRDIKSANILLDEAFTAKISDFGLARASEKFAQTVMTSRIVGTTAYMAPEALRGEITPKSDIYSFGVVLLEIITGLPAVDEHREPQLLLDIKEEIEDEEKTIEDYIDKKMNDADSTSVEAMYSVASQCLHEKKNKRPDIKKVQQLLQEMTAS
Aurora kinase B, sequence (Q96GD4 whole entry): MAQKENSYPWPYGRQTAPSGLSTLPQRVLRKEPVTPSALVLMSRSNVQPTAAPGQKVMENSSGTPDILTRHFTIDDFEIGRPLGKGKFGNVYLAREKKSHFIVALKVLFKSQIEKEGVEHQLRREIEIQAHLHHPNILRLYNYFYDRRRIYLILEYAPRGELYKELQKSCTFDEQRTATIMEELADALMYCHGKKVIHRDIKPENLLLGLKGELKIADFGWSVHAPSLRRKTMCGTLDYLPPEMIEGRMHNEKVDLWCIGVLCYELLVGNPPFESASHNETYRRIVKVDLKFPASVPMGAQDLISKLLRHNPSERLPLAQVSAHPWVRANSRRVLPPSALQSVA
Cyclin-dependent kinase 19, sequence (Q9BWU1 whole entry): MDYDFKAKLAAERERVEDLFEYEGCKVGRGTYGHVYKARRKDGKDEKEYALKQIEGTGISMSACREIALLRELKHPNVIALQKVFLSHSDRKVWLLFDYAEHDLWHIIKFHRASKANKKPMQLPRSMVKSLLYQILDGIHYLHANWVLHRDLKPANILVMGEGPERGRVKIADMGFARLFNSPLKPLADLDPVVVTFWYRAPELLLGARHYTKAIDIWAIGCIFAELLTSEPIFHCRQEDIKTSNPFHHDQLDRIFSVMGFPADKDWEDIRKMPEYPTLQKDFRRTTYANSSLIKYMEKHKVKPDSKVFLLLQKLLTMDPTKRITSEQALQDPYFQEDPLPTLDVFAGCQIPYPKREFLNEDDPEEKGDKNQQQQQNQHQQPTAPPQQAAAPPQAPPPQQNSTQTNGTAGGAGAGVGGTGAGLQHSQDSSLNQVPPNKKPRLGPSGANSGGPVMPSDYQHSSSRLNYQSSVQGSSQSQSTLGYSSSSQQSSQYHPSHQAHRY
Serine/threonine-protein kinase PAK 1, sequence (Q13153 whole entry): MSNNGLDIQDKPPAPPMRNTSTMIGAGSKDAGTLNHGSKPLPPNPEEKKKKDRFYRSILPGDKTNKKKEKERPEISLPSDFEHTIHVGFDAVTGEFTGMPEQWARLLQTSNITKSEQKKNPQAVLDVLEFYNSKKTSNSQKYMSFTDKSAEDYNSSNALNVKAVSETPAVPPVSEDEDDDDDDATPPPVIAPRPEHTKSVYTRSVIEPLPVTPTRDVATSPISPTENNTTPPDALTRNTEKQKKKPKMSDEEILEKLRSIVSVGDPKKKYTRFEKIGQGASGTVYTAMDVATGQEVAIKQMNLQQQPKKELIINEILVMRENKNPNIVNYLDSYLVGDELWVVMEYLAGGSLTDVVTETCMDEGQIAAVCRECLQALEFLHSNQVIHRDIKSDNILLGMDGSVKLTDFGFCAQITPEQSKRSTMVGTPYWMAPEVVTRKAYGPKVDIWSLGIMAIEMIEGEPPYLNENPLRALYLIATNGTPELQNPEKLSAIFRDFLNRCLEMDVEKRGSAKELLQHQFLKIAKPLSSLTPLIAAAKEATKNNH
Dual specificity protein kinase CLK4, sequence (Q9HAZ1 whole entry): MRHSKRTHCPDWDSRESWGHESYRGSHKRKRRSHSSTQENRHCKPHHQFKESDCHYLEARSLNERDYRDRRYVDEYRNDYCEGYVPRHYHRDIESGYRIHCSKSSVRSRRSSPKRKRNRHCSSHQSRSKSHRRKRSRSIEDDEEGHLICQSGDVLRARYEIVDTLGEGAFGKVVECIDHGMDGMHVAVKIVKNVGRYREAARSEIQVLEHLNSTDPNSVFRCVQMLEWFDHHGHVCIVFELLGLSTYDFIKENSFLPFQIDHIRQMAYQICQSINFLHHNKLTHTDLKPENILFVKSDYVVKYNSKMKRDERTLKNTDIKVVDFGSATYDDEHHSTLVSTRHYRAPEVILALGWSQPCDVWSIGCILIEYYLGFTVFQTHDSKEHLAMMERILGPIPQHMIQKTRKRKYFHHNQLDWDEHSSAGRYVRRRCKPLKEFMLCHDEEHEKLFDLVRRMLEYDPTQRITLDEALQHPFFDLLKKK
Melanocortin receptor 4, sequence (P32245 whole entry): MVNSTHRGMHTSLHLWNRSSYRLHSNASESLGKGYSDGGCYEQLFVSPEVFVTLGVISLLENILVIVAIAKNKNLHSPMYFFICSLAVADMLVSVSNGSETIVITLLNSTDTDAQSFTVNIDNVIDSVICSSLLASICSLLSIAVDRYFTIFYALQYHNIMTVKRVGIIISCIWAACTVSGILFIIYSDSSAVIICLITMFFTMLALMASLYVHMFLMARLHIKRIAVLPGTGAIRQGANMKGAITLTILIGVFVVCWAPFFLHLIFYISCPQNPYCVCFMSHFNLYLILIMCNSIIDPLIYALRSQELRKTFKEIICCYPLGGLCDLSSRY
Aurora kinase A, sequence (O14965 whole entry): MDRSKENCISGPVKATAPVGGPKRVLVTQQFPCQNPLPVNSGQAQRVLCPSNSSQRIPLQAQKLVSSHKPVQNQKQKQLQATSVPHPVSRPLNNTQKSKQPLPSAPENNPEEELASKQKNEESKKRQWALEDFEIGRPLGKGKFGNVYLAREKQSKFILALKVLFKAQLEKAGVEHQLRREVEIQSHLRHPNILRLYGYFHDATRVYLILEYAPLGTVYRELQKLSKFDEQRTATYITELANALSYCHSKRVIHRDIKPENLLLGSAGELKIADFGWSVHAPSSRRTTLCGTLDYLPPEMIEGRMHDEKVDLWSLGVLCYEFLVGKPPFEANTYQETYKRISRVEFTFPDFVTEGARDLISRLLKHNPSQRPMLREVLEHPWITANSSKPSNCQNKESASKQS
Dual specificity tyrosine-phosphorylation-regulated kinase 1B, sequence (Q9Y463 whole entry): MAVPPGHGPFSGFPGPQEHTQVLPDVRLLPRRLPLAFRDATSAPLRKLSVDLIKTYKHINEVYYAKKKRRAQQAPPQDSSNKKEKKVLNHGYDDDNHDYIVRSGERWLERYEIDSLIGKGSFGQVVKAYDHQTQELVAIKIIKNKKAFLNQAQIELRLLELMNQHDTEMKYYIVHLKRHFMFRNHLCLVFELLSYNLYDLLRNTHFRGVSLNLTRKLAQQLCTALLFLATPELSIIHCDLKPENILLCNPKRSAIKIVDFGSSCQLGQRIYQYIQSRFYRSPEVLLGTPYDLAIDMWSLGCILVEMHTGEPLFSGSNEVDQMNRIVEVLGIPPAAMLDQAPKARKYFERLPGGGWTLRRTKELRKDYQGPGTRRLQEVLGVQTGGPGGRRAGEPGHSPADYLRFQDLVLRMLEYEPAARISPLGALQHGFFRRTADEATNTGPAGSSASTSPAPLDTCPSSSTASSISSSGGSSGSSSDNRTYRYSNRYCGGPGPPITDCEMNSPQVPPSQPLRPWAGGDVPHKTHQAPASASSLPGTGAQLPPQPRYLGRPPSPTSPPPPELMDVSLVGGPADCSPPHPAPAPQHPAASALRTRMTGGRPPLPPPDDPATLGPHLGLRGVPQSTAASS
Mitogen-activated protein kinase 8, sequence (P45983 whole entry): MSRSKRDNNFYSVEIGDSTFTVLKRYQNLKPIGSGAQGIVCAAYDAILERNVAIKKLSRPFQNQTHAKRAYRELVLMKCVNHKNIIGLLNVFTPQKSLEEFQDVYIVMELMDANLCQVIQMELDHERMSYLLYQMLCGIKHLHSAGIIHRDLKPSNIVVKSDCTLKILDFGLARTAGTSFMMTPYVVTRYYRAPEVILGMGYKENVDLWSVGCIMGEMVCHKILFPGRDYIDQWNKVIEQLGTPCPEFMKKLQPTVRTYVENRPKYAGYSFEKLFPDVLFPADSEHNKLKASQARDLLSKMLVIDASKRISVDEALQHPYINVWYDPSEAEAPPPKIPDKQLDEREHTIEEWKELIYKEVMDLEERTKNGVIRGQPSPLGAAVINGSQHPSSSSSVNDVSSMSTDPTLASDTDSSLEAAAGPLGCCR

In the case of `Cc1oc2ncnc(N)c2c1-c1ccc(NC(=O)Nc2cccc(C(F)(F)F)c2)cc1`, the Ki – broadly, the dissociation constant of the complex between target and ligand, obtained from inhibition or displacement – in [1] was 3.98 µM (active); in [2], 0.0126 µM (active); in [3], 0.0794 µM (active).

For the compound `O=c1[nH]ccc2cnc(-c3ccccc3)n12`, the Ki was 79.4 µM (active) in experiment [4], 63.1 µM (active) in experiment [5], 39.8 µM (active) in [6] and 25.1 µM (active) in experiment [7].

In the case of `Cc1ccc(C2(c3ccc(C)cc3)CC2C(=O)Nc2ccncc2)cc1` (stereo not given), the Ki in experiment [8] is > 10 µM (inactive); in experiment [9] it was 2.51 µM (active); in experiment [10], > 10 µM (inactive).

In the case of `COc1ccc(-n2nnnc2S(=O)(=O)CC(=O)N2CCCCC2)cc1`, the AC50 (usually the concentration at which the activity in the assay is half-maximal) is 16.8 µM (active) in experiment [11]; 7.63 µM (active) in experiment [12]; 3.45 µM (active) in experiment [13]; 13 µM (active) in experiment [16]; 8.89 µM (active) in experiment [18]; 5.44 µM (active) in [20]. The AC50 was 13.6 µM (active) in experiment [22] and 7.53 µM (active) in experiment [23]. Moreover, the IC50 in experiment [14] is > 80 µM (inactive); in experiment [15] it was > 64.5 µM (inactive); in experiment [17], > 64.5 µM (inactive). Further, the EC50 – broadly, the concentration that produces a half-maximal response – in experiment [19] is 10.6 µM (active); in experiment [21], 10.9 µM (active). Moreover, the CC50 in [24] is 11.3 µM (active).

For the compound `C[n+]1cccc(C(=O)Nc2ccccc2)c1`, the IC50 in [25] was 6.95 µM (active); in [26] it was 28.6 µM (inactive); in experiment [27] it was 2.75 µM (active); in experiment [28], 5.96 µM (active); in experiment [29], 1.1 µM (active); in [30] it was 12.8 µM (inactive).
